Here are results for one molecule from patent US20070207230A1, “EXTRACT OF NELUMBINIS SEMEN FOR THE TREATMENT OF DEPRESSION, MEDICINAL COMPOSITE AND HEALTH FOODS INCLUDING THE EXTRACT OF NELUMBINIS SEMEN” (PURIMED CO., LTD., priority 2004, published 2007).

One data set relates to Sprague-Dawley male rats. The data set is described as follows: Forced swim test, immobility time. To be noted: 5 min forced swim the day after. The format is in vivo, rat. Here is the method: During forced swimming, the immobility time, when a rat ceases struggling and remains floating motionless in the water, was measured. The forced swimming itself induces depression in rats. Rats in water baths struggle first, and then stop struggling and remain floating motionless in the water. At the immobile state, rats become desperate and almost come to give up their lives. This time is considered to be the situation when depression is induced.
The antidepressive effects of drugs are assessed using this principle. Before being administered with drugs, experimental animals (rats) are dropped into water baths and forced to swim for 15 minutes to be trained to adapt to a suddenly changed environment without fear.
A comparative group was orally administered with a Hypericum perforatum extract. Another comparative group was intraperitoneally administered with fluoxetine. Each drug was administered for one day or six days.
Before the drug administration, the white rats were dropped into a cylindrical water bath (20 cm in diameter; 40 cm water depth) and forced to swim for 15 min. The day after the drug administration for one day or six days, the rats were forced to swim for 5 min, and during this forced swimming, immobility time was measured.

Another data set concerns 5-HT1A receptor. The data set is described as follows: [3H]-8-OH-DPAT receptor binding autoradiography on brain sections of CMS rats. The format is in vivo, rat. Here is the method:
Secondarily, antidepressive effects were evaluated by an increase or decrease in receptor binding of a serotonin 1A receptor agonist, [^3H]-8-OH-DPAT, in the rat prefrontal cortex, hippocampus and hypothalamus, which play important roles in depression, as follows. […] Whole brains were excised from the rats and rapidly frozen in dry ice. The rapidly frozen brains were stored at −70° C. until sectioned. The brains were cryo-sectioned into a size of 20 ? at −20° C. using a cryostat microtome (Leika), and each section was attached onto a gelatin-coated slide (Superfrost/Plus, Fisher Scientific). The slides were stored at −70° C. until use for observing changes in 5-HT1A receptor levels or activity. The changes in 5-HT1A receptor were examined using a radioisotope, [^3H]-8-OH-DPAT. The slides were taken out from a −70° C. freezer where the slides had been stored, and were pre-incubated in Tris-HCl buffer (170 mM Tris, 4 mM CaCl2, pH 7.6) for 30 min at room temperature. Then, the slides were incubated in Tris-HCl buffer containing 2 nM [^3H]-8-OH-DPAT (Amersham) for one hour. This incubation is total binding for observing the changes in the whole 5-HT1A receptor, and non-specific binding was observed using Tris-HCl buffer containing 1 μM 5-HT (Sigma). Then, the slides were washed with Tris-HCl buffer precooled at 4° C. six times and dried with chilled air. The slides were completely dried in a desiccator for 24 hours. The completely dried slides are exposed to Hyperfilm along with a standard scale bar for five weeks. The film exposed for five weeks was developed using a developer and a fixer. For quantitative analysis of density, the film was scanned using an image analysis program, ImageQuant (Molecular dynamics).
The changes in 5-HT1A receptor levels or activity were examined using a radioisotope, [^3H]-8-OH-DPAT. Reduced levels or inactivation of 5-HT1A receptor occur in the prefrontal cortex, hippocampus and hypothalamus of depressed patients. […] This normalization of 5-HT1A receptor by antidepressant administration is effective in treating depression and depression-associated neurodegeneration. Based on this fact, an increase in 5-HT1A receptor levels can be assessed by a receptor binding assay using a 5-HT1A receptor […]. When an increase in 5-HT1A receptor levels is observed upon Nelumbinis Semen administration in comparison with a control group exposed to CMS, this is considered an in vivo indication of an antidepressive effect at the molecular level. After drugs were administered for the last four weeks of the 8-week CMS period, an increase in 5-HT1A receptor levels, as an in vivo indication of antidepressive effect, was found in animals administered with the Nelumbinis Semen extract.

Data set [1] concerns male Wistar white rats exposed to CMS. Put plainly: Open field activity after CMS. The format is in vivo, rat. The settings on record: 8-week CMS, drug for the last four weeks; average. The text has this:
The open field consisted of a wooden box of 75×75×30 cm, the floor of which was divided by width and length lines into 15 cm squares. The open field was connected to a small box of 15×15×15 cm, which was used as a start box where experimental animals waited to enter the open field. A vertical sliding door was installed between the start box and the open field. White rats were placed in the start box, and, after 30 sec, the sliding door was open. The time to leave the start box toward the open field, which was expressed as start latency, was recorded. The start latency time means the time ranging from when the door was opened to when the rat tails completely exited the start box. […] The following behaviors were recorded for a total of 10 min: locomotion, rearing, grooming and defecation. Grooming behavior was recorded as the total time spent grooming in 10 min, and the remaining behaviors were all recorded as frequencies. Locomotor activity was recorded by counting the number of squares each white rat crossed on the floor divided into 25 15×15-cm squares using a computer tracking system. […] Grooming was recorded as the number of times each rat stroked its head or combed its fur with its forepaws during 10 min. After the 10-min observation, the white rats were removed from the open field, and defecation frequency was recorded by counting fecal boluses on the floor of the open field.

Data set [2] has the same test system. The data set is described as follows: Sucrose intake in the CMS model of depression. Type of data set: in vivo, rat. To be noted: 8-week CMS, drug for the last four weeks. The text has this:
Postnatal 6-week-old male Wistar white rats weighing 180-200 g were divided into test groups and a control group. The rats were first trained to experience and drink a 1% sucrose solution for 48 hrs to be adapted to sweetness. After three days, the test groups were exposed to CMS (chronic mild stress) for a total of eight weeks. The CMS procedure applied to the test groups was based on the procedure originally designed by Willner et al. (1987). The rats were sequentially exposed to a variety of mild stressors, and a series of stressors was suitably divided over one week and applied to rats according to a predetermined time schedule. This procedure was repeated for eight weeks.
The stress procedure is given in Table 1, below, which describes a weekly CMS regime (20-h food and water deprivation, prey limitation after the food and water deprivation (45 g powdered prey sprinkled), exposure to empty water bottles after the food and water deprivation, all day illumination, 30° cage tilt; soiled cage (400 ml of water spilled on bedding), presentation of intermittent 85-dB white noise, presentation of flashes of light with a stroboscope, and tripled housing). The control rats were weekly exposed only to food and water deprivation for 20 hrs before sucrose intake was measured, and were normally bred in single cages for the rest of the time with sufficient water and food supply. […]

Another data set concerns male rats exposed to CMS. The data set is described as follows: Sexual (mating) behavior after CMS. To be noted: drug last four weeks. The format is in vivo, rat. The method, then: A decrease in sucrose consumption (the core symptom of depression) in rats was confirmed during the 8-week CMS period, and antidepressants were administered for the last four weeks. Then, mating behavior of rats was observed. This test was carried out a dark and quiet room using a 16×16-inch transparent acrylic box. Mature female rats were ovariectomized, and, to induce sexual receptivity, were administered with 20 μg of estradiol benzoate 48 hrs before the test and 1 mg of progesterone 5 hrs before the test. Male rats were singly housed in the same box for 30 min to adapt to a new environment. […] When female rats have sexual receptivity, that is, are estrous, they allow male rats to mount and show lordosis. Sexual behaviors of male rats were divided into mounting, intromission and ejaculation, and frequency of each behavior was recorded. The number of ejaculation (higher frequency generally means higher sexual activity) was recorded for 30 min. The time taken after ejaculation before resumption of sexual activity was called “post-ejaculation interval (PEI)”. A decrease in PEI generally means that male rats have increased sexual activity.

Data set [3] is described as follows: Body weight in the CMS model of depression. The format is in vivo, rat. The settings on record: after 8-week CMS, drug for the last four weeks; versus CMS control group. The text has this:
The rats were first trained to experience and drink a 1% sucrose solution for 48 hrs to be adapted to sweetness. After three days, the test groups were exposed to CMS (chronic mild stress) for a total of eight weeks. The CMS procedure applied to the test groups was based on the procedure originally designed by Willner et al. (1987). The rats were sequentially exposed to a variety of mild stressors, and a series of stressors was suitably divided over one week and applied to rats according to a predetermined time schedule. This procedure was repeated for eight weeks. […] The control rats were weekly exposed only to food and water deprivation for 20 hrs before sucrose intake was measured, and were normally bred in single cages for the rest of the time with sufficient water and food supply. […] Intake of a 1% sucrose solution was measured once every week in each of the four groups. […] Sucrose preference was expressed as a ratio of sucrose intake to total water and sucrose intake. […] In each group, sucrose intake was monitored from the beginning of CMS and for the CMS period of eight weeks. Body weight was measured before the 20-h water and food deprivation performed to measure sucrose intake every week.

Another data set relates to rat hippocampus proteins. Put plainly: 2-DE analysis of hippocampus proteins of CMS rats. The settings on record: drug last four weeks, compared to control group.

Description for rat hippocampus proteins: Thirdly, an increase in marker proteins of antidepression, which play important roles in depression, was examined in the rat hippocampus by 2-DE, as follows. Rats were exposed to CMS for eight weeks and administered with drugs for the last four weeks of a test period. The hippocampus was excised from the rats, suspended with a sonicator and centrifuged, and the supernatants were recovered. Each sample was mixed with an IEF sample buffer and loaded onto an IEF gel. Proteins were separated according to isoelectric point by isoelectric focusing (IEF) in the first dimension and according to molecular weight by SDS-PAGE at 100-200 V for about 1-2 hours in the second dimension. The gel was stained by a Gel-Code Blue staining method and evaluated for elevated or newly emerged proteins by the antidepressive substances. The elevated or newly emerged proteins by the antidepressive substances were subjected to mass spectrometry.
Protein samples from the rat hippocampus were loaded onto an IEF gel. Proteins were separated according to isoelectric point by isoelectric focusing (IEF) in the first dimension and according to molecular weight by SDS-PAGE in the second dimension.

Regarding `CNCCC(Oc1ccc(C(F)(F)F)cc1)c1ccccc1` (stereo not drawn) [fluoxetine], the “decrease in immobility time in comparison with a control group” value turned out to be 9.3% in the data set with Sprague-Dawley male rats (one-day drug administration) and 22.1% with Sprague-Dawley male rats (six-day drug administration). Further, the 5-HT1A receptor levels entry with 5-HT1A receptor (CA2 region of the rat hippocampus) was “decrease”; with 5-HT1A receptor (rat hippocampus and hypothalamus, compared to CMS control group), “increase”. Further, the “decrease in 5-HT1A receptor levels” value with 5-HT1A receptor (CA3 region of the rat hippocampus) is reported as 2%; with 5-HT1A receptor (layer I-II of the rat cerebral frontal cortex, compared to the NS group, P<0.05), 46%. In addition, the “visit counts in open field” value in data set [1] was 60 places in 10 min. Also, the sucrose consumption entry in data set [2] is “restored to levels similar to the normal group”. Moreover, the “post-ejaculation interval (PEI)” value with male rats exposed to CMS (compared to control animals exposed to CMS) is “no significant difference”. Also, the “sexual behavior (ejaculation frequency in 30 min)” value with male rats exposed to CMS (compared to normal animals) is listed as “remarkably reduced”. Further, in data set [3], the body weight entry is reported as “greater weight loss than the control group”. Moreover, the “protein spots in 2-DE of hippocampus” value in the data set with rat hippocampus proteins is “decrease in spots 1 and 4”.
